Laboratory results taken from ChEMBL document CHEMBL1125168, “Antihypertensive activity of redox derivatives of tryptophan” (J Med Chem, 1990).

Experiment: Second-order rate of Ferricyanide -mediated oxidation using spectrophotometric method
Assay type: ADME

`C[n+]1cccc(C(=O)NC(Cc2c[nH]c3ccccc23)C(=O)OC2CCCCC2)c1` (centres undefined) and `COC(=O)C(Cc1c[nH]c2ccccc12)NC(=O)c1ccc[n+](C)c1` (centres undefined) are within 1.5-fold of each other in Ko: 12.2 M⁻¹ s⁻¹ for the first, 13.8 M⁻¹ s⁻¹ for the second.

Compared with `CCCCCCCCOC(=O)C(Cc1c[nH]c2ccccc12)NC(=O)c1ccc[n+](C)c1` (centres undefined), `CCOC(=O)C(Cc1c[nH]c2ccccc12)NC(=O)c1ccc[n+](C)c1` (centres undefined) is 1.8-fold higher in Ko: 7.61 M⁻¹ s⁻¹ for the first, 13.5 M⁻¹ s⁻¹ for the second.
